According to patent US20260116921A1, “PEPTIDE INHIBITORS OF INTERLEUKIN-23 RECEPTOR AND THEIR USE TO TREAT INFLAMMATORY DISEASES” (priority 2018, published 2026):
Numbered stars: 1 amine (or outer) side, 2 acyl side, 3 side chain; on linkers, the order of the positions; unused ones are H or OH. Bridge positions count the residues as written; N and C are the ends. Square brackets hold non-standard residues; d marks the D form. Peptide text beside a SMILES is read from it. Trp(7-Me) = Cc1cccc2c(C[C@H](N)C(=O)O)c[nH]c12; Abu(4-yl) = O=C([C@H](CC[*:3])N[*:1])[*:2]; 2Nal = N[C@@H](Cc1ccc2ccccc2c1)C(=O)O; AEF = NCCOc1ccc(C[C@H](N)C(=O)O)cc1; αMeF = C[C@](N)(Cc1ccccc1)C(=O)O; Cit = NC(=O)NCCC[C@H](N)C(=O)O; Pen = CC(C)(S)[C@H](N)C(=O)O; αMeK = C[C@](N)(CCCCN)C(=O)O; Aib = CC(C)(N)C(=O)O; βAla = NCCC(=O)O; Sar = CNCC(=O)O

Target: T1, IL-23R (Homo sapiens, UniProt Q5VWK5)
T1 sequence (Q5VWK5 24-629): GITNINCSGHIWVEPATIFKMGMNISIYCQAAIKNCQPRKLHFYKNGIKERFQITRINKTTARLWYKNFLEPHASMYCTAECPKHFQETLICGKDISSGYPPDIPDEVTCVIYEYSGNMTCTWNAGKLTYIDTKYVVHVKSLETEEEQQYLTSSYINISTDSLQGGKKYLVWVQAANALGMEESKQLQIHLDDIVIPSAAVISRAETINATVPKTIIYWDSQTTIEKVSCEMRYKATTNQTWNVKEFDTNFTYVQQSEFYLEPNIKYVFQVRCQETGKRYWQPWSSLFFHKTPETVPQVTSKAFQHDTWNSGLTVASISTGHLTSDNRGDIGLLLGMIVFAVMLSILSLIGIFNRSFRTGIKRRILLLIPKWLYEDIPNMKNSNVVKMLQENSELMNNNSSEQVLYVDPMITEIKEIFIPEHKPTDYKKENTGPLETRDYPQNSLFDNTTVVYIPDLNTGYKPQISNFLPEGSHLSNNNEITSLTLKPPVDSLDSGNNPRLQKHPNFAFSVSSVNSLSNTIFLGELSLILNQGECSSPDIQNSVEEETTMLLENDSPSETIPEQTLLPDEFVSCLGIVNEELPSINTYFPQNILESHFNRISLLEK
Assay: DB cells IL23R pSTAT3 cell assay (pStat3 HTRF)
Type: cell-based
Details: not given
Description: Human ELISA indicates the IL23-IL23R competitive binding assay described below, Rat ELISA indicates the rat IL-23R competitive binding ELISA assay described below, and pStat3HTRF indicates the DB cells IL-23R pSTAT3 cell assay described below. The peptides depicted in Table E1 are cyclized via a disulfide bridge formed between two Pen residues in these peptides. The peptides depicted in Table E2 are cyclized via a thioether bond between the indicated amino acid residues. Table E2 provides an illustrative structure depicting thioether cyclization, which is indicated in the table by the term “cyclo,” with the cyclic region bracketed immediately following the term “cyclo.” For certain peptides, the residue Abu is present where indicated, whereas in other embodiments, e.g., those related to the non-cyclized form, the Abu may be referred to as a hSer(Cl) or homoSer residue.
DB Cells IL23R pSTAT3 Cell Assay
IL-23 plays a central role in supporting and maintaining Th17 differentiation in vivo. This process is thought to be mediated primarily through the Signal Transducer and Activator of Transcription 3 (STAT3), with phosphorylation of STAT3 (to yield pSTAT3) leading to upregulation of RORC and pro-inflammatory IL-17. This cell assay examines the levels of pSTAT3 in IL-23R-expressing DB cells when stimulated with IL-23 in the presence of test compounds. Serial dilutions of test peptides and IL-23 (Humanzyme #HZ-1261) at a final concentration of 0.5 nM, were added to each well in a 96 well tissue culture plate (Corning #CLS3894). DB cells (ATCC #CRL-2289), cultured in RPMI-1640 medium (Thermo Scientific #11875093) supplemented with 10% FBS, were added at 5×10E5 cells/well and incubated for 30 minutes at 37° C. in a 5% CO2 humidified incubator. Changes in phospho-STAT3 levels in the cell lysates were detected using the Cisbio HTRF pSTAT3 (Tyr705) Cellular Assay Kit (Cisbio #62AT3PEH), according to manufacturer's Two Plate Assay protocol.

In the case of CCCCCCCC(=O)NCCCC[C@@H]1NC(=O)[C@H](Cc2c[nH]c3c(C)cccc23)NC(=O)[C@H]([C@@H](C)O)NC(=O)[C@H](CC(N)=O)NC(=O)[C@@H](NC(C)=O)C(C)(C)SSC(C)(C)[C@@H](C(=O)N[C@@H](Cc2ccc(OCCN)cc2)C(=O)N[C@@H](Cc2ccc3ccccc3c2)C(=O)N[C@@](C)(CCCCN)C(=O)N[C@@H](CCCCNC(C)=O)C(=O)N[C@@H](CC(N)=O)C(=O)N[C@H](CC(C)C)C(N)=O)NC1=O [compound 317], the IC50 is reported as 1 to 10 nM.

Same assay, conditions: Table E3; DB cells, IL-23 0.5 nM, 30 minutes at 37° C.; read-out: pStat3 HTRF (IC50)

CC(=O)NCCCC[C@H](NC(=O)[C@](C)(CCCCN)NC(=O)[C@H](Cc1ccc2ccccc2c1)NC(=O)[C@H](Cc1ccc(OCCN)cc1)NC(=O)[C@H]1NC(=O)[C@H](CCC(N)=O)NC(=O)[C@H](Cc2c[nH]c3ccc(C#N)cc23)NC(=O)[C@H]([C@@H](C)O)NC(=O)[C@H](CC(N)=O)NC(=O)[C@@H](NC(C)=O)C(C)(C)SSC1(C)C)C(=O)N[C@@H](CC(N)=O)C(=O)N[C@H](CCCCN)C(N)=O [compound 296] and COc1cccc2c(C[C@@H]3NC(=O)[C@H]([C@@H](C)O)NC(=O)[C@H](CC(N)=O)NC(=O)[C@@H](NC(C)=O)C(C)(C)SSC(C)(C)[C@@H](C(=O)N[C@@H](Cc4ccc(OCCN)cc4)C(=O)N[C@@H](Cc4ccc5ccccc5c4)C(=O)N[C@@](C)(CCCCN)C(=O)N[C@@H](CCCCNC(C)=O)C(=O)N[C@@H](CC(N)=O)C(=O)N[C@H](CCCCN)C(N)=O)NC(=O)[C@H](CCC(N)=O)NC3=O)c[nH]c12 [compound 297] fall in the same range of IC50: 1 to 10 nM for the first, 1 to 10 nM for the second.

Compared with COc1cccc2c(C[C@@H]3NC(=O)[C@H]([C@@H](C)O)NC(=O)[C@H](CC(N)=O)NC(=O)[C@@H](NC(C)=O)C(C)(C)SSC(C)(C)[C@@H](C(=O)N[C@@H](Cc4ccc(OCCN)cc4)C(=O)N[C@@H](Cc4ccc5ccccc5c4)C(=O)N[C@@](C)(CCCCN)C(=O)N[C@@H](CCCCNC(C)=O)C(=O)N[C@@H](CC(N)=O)C(=O)N[C@H](CCCCN)C(N)=O)NC(=O)[C@H](CCCCNC(C)=O)NC3=O)c[nH]c12 [compound 299], CC(=O)NCCCC[C@H](NC(=O)[C@](C)(CCCCN)NC(=O)[C@H](Cc1ccc2ccccc2c1)NC(=O)[C@H](Cc1ccc(OCCN)cc1)NC(=O)[C@H]1NC(=O)[C@H](CCCNC(N)=O)NC(=O)[C@H](Cc2c[nH]c3c(C)cccc23)NC(=O)[C@H]([C@@H](C)O)NC(=O)[C@H](CC(N)=O)NC(=O)[C@@H](NC(C)=O)C(C)(C)SSC1(C)C)C(=O)N[C@@H](CC(N)=O)C(=O)NC(C)(C)C(=O)N[C@H](CCCCN)C(N)=O [compound 344] (Ac-[Pen]NT[Trp(7-Me)][Cit][Pen][AEF][2Nal][αMeK]K(Ac)N[Aib][dK]-NH2; disulfide 1-6) is lower in IC50: 1 to 10 nM for the first, less than 1 nM for the second.

Compared with CC(=O)NCCCC[C@H](NC(=O)[C@](C)(CCCCN)NC(=O)[C@H](Cc1ccc2ccccc2c1)NC(=O)[C@H](Cc1ccc(OCCN)cc1)NC(=O)[C@H]1NC(=O)[C@H](CCCCNC(=O)[C@H](C)N)NC(=O)[C@H](Cc2c[nH]c3c(C)cccc23)NC(=O)[C@H]([C@@H](C)O)NC(=O)[C@H](CC(N)=O)NC(=O)[C@@H](NC(C)=O)C(C)(C)SSC1(C)C)C(=O)N[C@@H](CC(N)=O)C(=O)N[C@H](CC(C)C)C(N)=O [compound 314], CC(=O)NCCCC[C@H](NC(=O)[C@](C)(CCCCN)NC(=O)[C@H](Cc1ccc2ccccc2c1)NC(=O)[C@H](Cc1ccc(OCCN)cc1)NC(=O)[C@H]1NC(=O)[C@H](CCCCNC(=O)CC(F)(F)F)NC(=O)[C@H](Cc2c[nH]c3c(C)cccc23)NC(=O)[C@H]([C@@H](C)O)NC(=O)[C@H](CC(N)=O)NC(=O)[C@@H](NC(C)=O)C(C)(C)SSC1(C)C)C(=O)N[C@@H](CC(N)=O)C(=O)N[C@H](CC(C)C)C(N)=O [compound 319] is lower in IC50: 1 to 10 nM for the first, less than 1 nM for the second. The second is the more potent here.

First: CC(=O)NCCCC[C@@H]1NC(=O)[C@H](Cc2c[nH]c3c(C)cccc23)NC(=O)[C@H]([C@@H](C)O)NC(=O)[C@H](CCC(N)=O)NC(=O)[C@@H](NC(=O)[C@@H](CCCNC(=N)N)NC(C)=O)CCSC[C@@H](C(=O)N[C@@H](Cc2ccc(OCCN)cc2)C(=O)N[C@@H](Cc2ccc3ccccc3c2)C(=O)N[C@@](C)(CCCCN)C(=O)N[C@@H](CCCCNC(C)=O)C(=O)N[C@@H](CC(N)=O)C(=O)N[C@H](CCCCN)C(=O)N(C)CC(N)=O)NC1=O [compound 323] (Ac-[dR][Abu(4-yl)]QT[Trp(7-Me)]K(Ac)C[AEF][2Nal][αMeK]K(Ac)N[dK][Sar]-NH2; thioether 2-7)
Second: CC(=O)NCCCC[C@@H]1NC(=O)[C@H](Cc2c[nH]c3c(C)cccc23)NC(=O)[C@H]([C@@H](C)O)NC(=O)[C@H](CCC(N)=O)NC(=O)[C@@H](NC(=O)[C@@H](CCCNC(=N)N)NC(C)=O)CCSC[C@@H](C(=O)N[C@@H](Cc2ccc(OCCN)cc2)C(=O)N[C@@H](Cc2ccc3ccccc3c2)C(=O)N[C@@](C)(CCCCN)C(=O)N[C@@H](CCCCNC(C)=O)C(=O)N[C@@H](CC(N)=O)C(=O)N[C@@](C)(Cc2ccccc2)C(N)=O)NC1=O [compound 327] (Ac-[dR][Abu(4-yl)]QT[Trp(7-Me)]K(Ac)C[AEF][2Nal][αMeK]K(Ac)N[αMeF]-NH2; thioether 2-7)
The IC50 of the first is lower: 1 to 10 nM for the first, 10 to 100 nM for the second. The first is the more potent here.

First: CC(=O)NCCCC[C@H](NC(=O)[C@](C)(CCCCN)NC(=O)[C@H](Cc1ccc2ccccc2c1)NC(=O)[C@H](Cc1ccc(OCCN)cc1)NC(=O)[C@H]1NC(=O)[C@H](CCCNC(N)=O)NC(=O)[C@H](Cc2c[nH]c3c(C)cccc23)NC(=O)[C@H]([C@@H](C)O)NC(=O)[C@H](CC(N)=O)NC(=O)[C@@H](NC(C)=O)C(C)(C)SSC1(C)C)C(=O)N[C@@H](CC(N)=O)C(=O)N(C)CC(N)=O [compound 339] (Ac-[Pen]NT[Trp(7-Me)][Cit][Pen][AEF][2Nal][αMeK]K(Ac)N[Sar]-NH2; disulfide 1-6)
Second: CC(=O)NCCCC[C@H](NC(=O)[C@](C)(CCCCN)NC(=O)[C@H](Cc1ccc2ccccc2c1)NC(=O)[C@H](Cc1ccc(OCCN)cc1)NC(=O)[C@H]1NC(=O)[C@H](CCCNC(N)=O)NC(=O)[C@H](Cc2c[nH]c3c(C)cccc23)NC(=O)[C@H]([C@@H](C)O)NC(=O)[C@H](CC(N)=O)NC(=O)[C@@H](NC(C)=O)C(C)(C)SSC1(C)C)C(=O)N[C@@H](CC(N)=O)C(=O)NC(C)(C)C(=O)NCC(N)=O [compound 341] (Ac-[Pen]NT[Trp(7-Me)][Cit][Pen][AEF][2Nal][αMeK]K(Ac)N[Aib]G-NH2; disulfide 1-6)
The IC50 of the first is higher: 1 to 10 nM for the first, less than 1 nM for the second. The second is the more potent here.

CC(=O)NCCCC[C@H](NC(=O)[C@](C)(CCCCN)NC(=O)[C@H](Cc1ccc2ccccc2c1)NC(=O)[C@H](Cc1ccc(OCCN)cc1)NC(=O)[C@H]1NC(=O)[C@H](CCCNC(N)=O)NC(=O)[C@H](Cc2c[nH]c3c(C)cccc23)NC(=O)[C@H]([C@@H](C)O)NC(=O)[C@H](CC(N)=O)NC(=O)[C@@H](NC(C)=O)C(C)(C)SSC1(C)C)C(=O)N[C@@H](CC(N)=O)C(=O)NC(C)(C)C(=O)NCCC(N)=O [compound 340] (Ac-[Pen]NT[Trp(7-Me)][Cit][Pen][AEF][2Nal][αMeK]K(Ac)N[Aib][βAla]-NH2; disulfide 1-6) and CC(=O)NCCCC[C@H](NC(=O)[C@](C)(CCCCN)NC(=O)[C@H](Cc1ccc2ccccc2c1)NC(=O)[C@H](Cc1ccc(OCCN)cc1)NC(=O)[C@H]1NC(=O)[C@H](CCCNC(N)=O)NC(=O)[C@H](Cc2c[nH]c3c(C)cccc23)NC(=O)[C@H]([C@@H](C)O)NC(=O)[C@H](CC(N)=O)NC(=O)[C@@H](NC(C)=O)C(C)(C)SSC1(C)C)C(=O)N[C@@H](CC(N)=O)C(=O)NC(C)(C)C(=O)N[C@@H](C)C(N)=O [compound 342] (Ac-[Pen]NT[Trp(7-Me)][Cit][Pen][AEF][2Nal][αMeK]K(Ac)N[Aib]A-NH2; disulfide 1-6) cannot be ordered by IC50: less than 1 nM for the first, less than 1 nM for the second.

In the case of CC(=O)NCCCC[C@H](NC(=O)[C@](C)(CCCCN)NC(=O)[C@H](Cc1ccc2ccccc2c1)NC(=O)[C@H](Cc1ccc(OCCN)cc1)NC(=O)[C@H]1NC(=O)[C@H](CCCNC(N)=O)NC(=O)[C@H](Cc2c[nH]c3c(C)cccc23)NC(=O)[C@H]([C@@H](C)O)NC(=O)[C@H](CC(N)=O)NC(=O)[C@@H](NC(C)=O)C(C)(C)SSC1(C)C)C(=O)N[C@@H](CC(N)=O)C(=O)NC(C)(C)C(=O)N[C@@H](CCCNC(=N)N)C(N)=O [compound 343] (Ac-[Pen]NT[Trp(7-Me)][Cit][Pen][AEF][2Nal][αMeK]K(Ac)N[Aib]R-NH2; disulfide 1-6), the IC50 is reported as 1 to 10 nM.
